According to PubChem BioAssay AID248 (DTP/NCI, 2004):
Values joined by “and” are separate entries in the source; they are usually repeats but may differ in a detail not shown here. Identical values can stand only once. Inconclusive results and toxic doses are left out. Rule as the data show it: active = T/C of 150% or more; inactive = T/C below 125%.

System: L1210 leukemia ip in BDF1 mice, survival T/C
Assay: NCI In Vivo Anticancer Drug Screen. Data for tumor model L1210 Leukemia (intraperitoneal) in B6D2F1 (BDF1) mice
Details: endpoint: mean survival time, higher = longer survival
Method in brief: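 Antitumor effect is assessed in tumor-bearing animals. Survival in the compound arm is compared with a vehicle-dosed control arm and expressed as their quotient.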

[1] = dose: 100.0 mg/kg/injection, schedule: Q01DX001 (ip), vehicle: Klucel (hydroxypropylcellulose) (HPC)
[2] = dose: 200.0 mg/kg/injection, schedule: Q01DX001 (ip), vehicle: Klucel (hydroxypropylcellulose) (HPC)
[3] = dose: 100.0 mg/kg/injection, schedule: Q04DX002 (ip), vehicle: Klucel (hydroxypropylcellulose) (HPC)
[4] = dose: 200.0 mg/kg/injection, schedule: Q04DX002 (ip), vehicle: Klucel (hydroxypropylcellulose) (HPC)
[5] = dose: 400.0 mg/kg/injection, schedule: Q04DX002 (ip), vehicle: Klucel (hydroxypropylcellulose) (HPC)
[6] = dose: 100.0 mg/kg/injection, schedule: Q04DX003 (ip), vehicle: Klucel (hydroxypropylcellulose) (HPC)
[7] = dose: 200.0 mg/kg/injection, schedule: Q04DX003 (ip), vehicle: Klucel (hydroxypropylcellulose) (HPC)
[8] = dose: 400.0 mg/kg/injection, schedule: Q04DX003 (ip), vehicle: Klucel (hydroxypropylcellulose) (HPC)
[9] = dose: 50.0 mg/kg/injection, schedule: Q01DX001 (ip), vehicle: saline
[10] = dose: 100.0 mg/kg/injection, schedule: Q01DX001 (ip), vehicle: saline
[11] = dose: 200.0 mg/kg/injection, schedule: Q01DX001 (ip), vehicle: saline
[12] = dose: 100.0 mg/kg/injection, schedule: Q04DX003 (ip), vehicle: saline
[13] = dose: 200.0 mg/kg/injection, schedule: Q04DX003 (ip), vehicle: saline
[14] = dose: 50.0 mg/kg/injection, schedule: Q01DX009 (ip), vehicle: saline
[15] = dose: 6.25 mg/kg/injection, schedule: Q01DX009 (ip), vehicle: saline with Tween-80
[16] = dose: 12.5 mg/kg/injection, schedule: Q01DX009 (ip), vehicle: saline with Tween-80
[17] = dose: 25.0 mg/kg/injection, schedule: Q01DX009 (ip), vehicle: saline with Tween-80
[18] = dose: 25.0 mg/kg/injection, schedule: Q04DX002 (ip), vehicle: Klucel (hydroxypropylcellulose) (HPC)
[19] = dose: 50.0 mg/kg/injection, schedule: Q04DX002 (ip), vehicle: Klucel (hydroxypropylcellulose) (HPC)
[20] = dose: 100.0 mg/kg/injection, schedule: Q01DX009 (ip), vehicle: Klucel (hydroxypropylcellulose) (HPC)
[21] = dose: 400.0 mg/kg/injection, schedule: Q01DX001 (ip), vehicle: saline
[22] = dose: 25.0 mg/kg/injection, schedule: Q04DX003 (ip), vehicle: saline with Tween-80
[23] = dose: 50.0 mg/kg/injection, schedule: Q04DX003 (ip), vehicle: saline with Tween-80
[24] = dose: 100.0 mg/kg/injection, schedule: Q04DX003 (ip), vehicle: saline with Tween-80
[25] = dose: 50.0 mg/kg/injection, schedule: Q01DX009 (ip), vehicle: saline with Tween-80

Measured: T/C

CCN(CC)C(=O)c1cncc(-c2ccccc2)c1
inactive: [1] 97 % of control | [2] 98 % of control

N#CCc1c[nH]c2ccc(OCc3ccccc3)cc12
inactive: dose: 50.0 mg/kg/injection, schedule: Q01DX009 (ip), vehicle: other 100 % of control | dose: 100.0 mg/kg/injection, schedule: Q01DX009 (ip), vehicle: other 94 % of control | dose: 200.0 mg/kg/injection, schedule: Q01DX009 (ip), vehicle: other 108 % of control

CCc1cc2oc(C)c(C)c2c(N=Nc2ccccc2[N+](=O)[O-])c1O
inactive: [3] 96 % of control | [4] 96 % of control | [5] 93 % of control

O=[N+]([O-])c1ccc(N=Cc2ccccc2)cc1
inactive: [6] 91 % of control | [7] 96 % of control | [8] 98 % of control

C1CCC(N2CC3CCCC2O3)CC1 (configuration not stated)
inactive: [9] 101 % of control | [10] 97 % of control | [11] 95 % of control

O=C(c1ccc(Cl)c(Cl)c1)n1c2ccccc2c2ccccc21
inactive: [12] 102 % of control | [13] 100 % of control | dose: 400.0 mg/kg/injection, schedule: Q04DX003 (ip), vehicle: saline 100 % of control

C=COCCN(C)C
inactive: [14] 90 % of control | dose: 100.0 mg/kg/injection, schedule: Q01DX009 (ip), vehicle: saline 93 % of control | [12] 105 % of control | dose: 200.0 mg/kg/injection, schedule: Q01DX009 (ip), vehicle: saline 93 % of control | [13] 89 % of control

COC(=O)c1ccccc1N1C(=O)C=CC1=O
inactive: [15] 97 % of control | [16] 98 % of control | [17] 103 % of control

ClC1=C(Cl)C(Cl)=C(Cl)C1=Cc1ccccc1
inactive: dose: 3.13 mg/kg/injection, schedule: Q01DX009 (ip), vehicle: saline with Tween-80 113 % of control | [15] 107 % of control | [18] 100 % of control | [19] 90 % of control

COc1ccc(C(C(N)=O)N2CCCCC2)cc1 (configuration not stated)
inactive: [20] 95 % of control | [6] 107 % of control | dose: 200.0 mg/kg/injection, schedule: Q01DX009 (ip), vehicle: Klucel (hydroxypropylcellulose) (HPC) 88 % of control | [7] 94 % of control | dose: 400.0 mg/kg/injection, schedule: Q01DX009 (ip), vehicle: Klucel (hydroxypropylcellulose) (HPC) 91 % of control | [8] 102 % of control

CCOC=Nc1cc(-n2cnc3c(Cl)ncnc32)ccc1C
inactive: dose: 100.0 mg/kg/injection, schedule: Q01DX001 (ip), vehicle: carboxymethylcellulose (CMC) 87 % of control | dose: 200.0 mg/kg/injection, schedule: Q01DX001 (ip), vehicle: carboxymethylcellulose (CMC) 98 % of control | dose: 400.0 mg/kg/injection, schedule: Q01DX001 (ip), vehicle: carboxymethylcellulose (CMC) 96 % of control

CN1C(=O)N(Br)C(C)(C)C1=O
inactive: dose: 50.0 mg/kg/injection, schedule: Q01DX009 (ip), vehicle: Klucel (hydroxypropylcellulose) (HPC) 95 % of control | dose: 50.0 mg/kg/injection, schedule: Q04DX003 (ip), vehicle: Klucel (hydroxypropylcellulose) (HPC) 106 % of control | [1] 92 % of control | [20] 98 % of control | [6] 100 % of control | [2] 102 % of control | [7] 97 % of control

c1ccc(C(=C2CCC2)c2c3ccccc3cc3ccccc23)cc1
inactive: dose: 40.0 mg/kg/injection, schedule: Q01DX009 (ip), vehicle: Klucel (hydroxypropylcellulose) (HPC) 99 % of control | dose: 75.0 mg/kg/injection, schedule: Q01DX001 (ip), vehicle: Klucel (hydroxypropylcellulose) (HPC) 93 % of control | dose: 75.0 mg/kg/injection, schedule: Q01DX009 (ip), vehicle: Klucel (hydroxypropylcellulose) (HPC) 107 % of control | dose: 150.0 mg/kg/injection, schedule: Q01DX001 (ip), vehicle: Klucel (hydroxypropylcellulose) (HPC) 90 % of control | dose: 150.0 mg/kg/injection, schedule: Q01DX009 (ip), vehicle: Klucel (hydroxypropylcellulose) (HPC) 99 % of control

CCOC(=O)C(C(=O)OCC)c1cccc(Cl)c1
inactive: [9] 106 % of control | [10] 109 % of control | [11] 103 % of control | [21] 103 % of control

NC(=Nc1ccccc1)c1ccc(Cl)cc1
inactive: [18] 93 % of control | [19] 97 % of control | [3] 101 % of control and 115 % of control

CN(C)C1CS(=O)(=O)CC1[N+](C)(C)C (configuration not stated)
inactive: dose: 100.0 mg/kg/injection, schedule: Q04DX002 (ip), vehicle: saline 118 % of control | dose: 200.0 mg/kg/injection, schedule: Q04DX002 (ip), vehicle: saline 89 % of control | dose: 400.0 mg/kg/injection, schedule: Q04DX002 (ip), vehicle: saline 110 % of control

O=C1c2ccccc2CC(Br)c2ccccc21 (configuration not stated)
inactive: [1] 95 % of control | [2] 100 % of control | dose: 400.0 mg/kg/injection, schedule: Q01DX001 (ip), vehicle: Klucel (hydroxypropylcellulose) (HPC) 100 % of control

NCCSc1ccccc1
inactive: dose: 25.0 mg/kg/injection, schedule: Q04DX002 (ip), vehicle: saline with Tween-80 92 % of control | dose: 50.0 mg/kg/injection, schedule: Q04DX002 (ip), vehicle: saline with Tween-80 101 % of control | dose: 100.0 mg/kg/injection, schedule: Q04DX002 (ip), vehicle: saline with Tween-80 96 % of control and 114 % of control

CC(N)COCc1ccccc1 (configuration not stated)
inactive: dose: 25.0 mg/kg/injection, schedule: Q01DX009 (ip), vehicle: saline 97 % of control | [22] 97 % of control | [14] 97 % of control | [23] 119 % of control | [24] 97 % of control and 88 % of control

CN(N=O)C(=O)Nc1ccccc1
inactive: dose: 6.25 mg/kg/injection, schedule: Q01DX Z (ip), vehicle: carboxymethylcellulose (CMC) 104 % of control | dose: 12.5 mg/kg/injection, schedule: Q01DX Z (ip), vehicle: carboxymethylcellulose (CMC) 112 % of control | dose: 25.0 mg/kg/injection, schedule: Q01DX Z (ip), vehicle: carboxymethylcellulose (CMC) 112 % of control | dose: 50.0 mg/kg/injection, schedule: Q01DX Z (ip), vehicle: carboxymethylcellulose (CMC) 122 % of control | dose: 100.0 mg/kg/injection, schedule: Q01DX Z (ip), vehicle: carboxymethylcellulose (CMC) 91 % of control | dose: 150.0 mg/kg/injection, schedule: Q01DX001 (ip), vehicle: carboxymethylcellulose (CMC) 112 % of control | dose: 600.0 mg/kg/injection, schedule: Q01DX001 (ip), vehicle: carboxymethylcellulose (CMC) 117 % of control

CC(C)CCCC(C)C1CCC2C3CC(O)C4=CC(O)CCC4(C)C3CCC12C (configuration not stated)
inactive: dose: 75.0 mg/kg/injection, schedule: Q01DX001 (ip), vehicle: other 92 % of control | dose: 150.0 mg/kg/injection, schedule: Q01DX001 (ip), vehicle: other 93 % of control

CS(=O)(=O)c1ccc(Sc2ccc(S(C)(=O)=O)cc2)cc1
inactive: [16] 105 % of control | [17] 96 % of control | [22] 98 % of control | [25] 92 % of control | [23] 94 % of control | [24] 93 % of control

COCC(O)CCl (configuration not stated)
inactive: [17] 113 % of control | [25] 113 % of control | dose: 100.0 mg/kg/injection, schedule: Q01DX009 (ip), vehicle: saline with Tween-80 113 % of control

Cn1cc([N+](=O)[O-])c2ccccc2c1=O
inactive: [6] 109 % of control | [7] 120 % of control

CCOC(=O)CNc1ccc(C(F)(F)F)cc1
inactive: [3] 104 % of control | [4] 104 % of control | [5] 97 % of control

CNC1C(OC2C(OC3C(O)C(O)C(N=C(N)N)C(O)C3N=C(N)N)OC(C)C2(O)C=O)OC(CO)C(O)C1O (configuration not stated)
inactive: [10] 108 % of control | [11] 106 % of control | [21] 114 % of control
